This note sets out measurements from patent US11400389B2, “Marsdenia cundurango creeper extracts, cosmetic compositions comprising them and cosmetic uses of same” (ISP Investments LLC, priority 2017, dated 2022).

No end group written: not given here.

The subject of one experiment is LAMP2. In words: Expression of the LAMP2 autophagy marker in skin biopsies with or without multi-toxin (cigarette smoke) stress. The experiment is classed as cell-based. As to conditions: human skin biopsies, extract 1% in a cream, EGCG 200 μg/ml. Here is the method:
The objective of this study was to observe the effect of treatment by condurango on skin biopsies previously subjected to multi-toxin stress, brought about by incubating the biopsies with cigarette smoke.
The selected marker is the lysosomal membrane protein LAMP2A, which is involved in the process of autophagy, one of the main pathways of degradation of cellular waste.
Human skin biopsies in culture were placed in a sealed chamber saturated with cigarette smoke for 30 minutes. This stress was referred to as multi-toxic stress due to the cigarette smoke being composed of toxic molecules from different classes. After the stress, the biopsies were placed in culture and treated by the condurango extract obtained from example 4 and formulated to 1% (mass/mass) in a cream, as in example 5. […]
At the end of this incubation, the protein LAMP2 was detected by immunomarking on skin biopsy sections.
This technique was performed on paraffin skin sections incubated in the presence of the anti-LAMP2 antibody (rabbit polyclonal antibody, Abcam) After 1 hour of incubation followed by rinsings, the sections were incubated in the presence of secondary anti-rabbit antibody coupled with a fluorophore (Alexa Fluor® 488, Invitrogen). The sections were then examined under epi-fluorescence microscope (Zeiss Axiovert 200M microscope). The expression of LAMP2 was then observed and quantified at epidermis level.

Another experiment relates to interleukin-6 (IL-6). Description: Salting-out of interleukin-6 by skin biopsies subjected to stress by substance P (ELISA). The experiment is classed as cell-based, human. The settings on record: substance P 10^−6 M in culture medium, 48 hours, extract 1% in a cream where applied. From the text: The objective of this experiment was to study the effect of the condurango extract on skin biopsies subjected to a stress by the substance P. The substance P was the central mediator of neurogenic inflammation (inflammation mediated via the peripheral nervous system). The neuropeptide is involved in various processes, including acute or chronic inflammation, and the perception of pain or nociception. The effect of the stress, whether or not brought about in the presence of the condurango extract, was studied by measuring the salting-out of interleukin-6 (IL-6), a cytokine synthesised by skin cells and considered to be a nociceptive inflammation mediator (O'Donovan A et al. Clinical anxiety, cortisol and interleukin-6: evidence for specificity in emotion-biology relationships. Brain Behav Immun. 2010 October; 24(7):1074-7).
Skin biopsies in culture were treated with the condurango extract obtained from example 4, formulated to 1% in a cream, as in example 5, with or without addition of substance P at 10^−6 M in the culture medium.
After 48 hours of incubation, the culture medium of the biopsies was collected and the level of IL-6 was measured by ELISA.

For `O=C(O[C@@H]1Cc2c(O)cc(O)cc2O[C@@H]1c1cc(O)c(O)c(O)c1)c1cc(O)c(O)c(O)c1` [EGCG, epigallocatechin gallate], the “increase of LAMP2 after multi-toxic stress” value with LAMP2 (cigarette smoke 30 minutes then treatment) is “+26%”. For the same compound, in the experiment with LAMP2 (no stress, 48 hours), the “rise in the marking intensity of LAMP2, in the absence of stress” value is on record as “+27%”. For “substance P: neuropeptide, central mediator of neurogenic inflammation, used as stressor (RPKPQQFFGLM; ends and bridges not checked; UniProt P20366 58-68, looked up)”, in the experiment with interleukin-6 (IL-6), the “level of IL-6 compared to the non-stressed control” value was “+68%”.
